For data set [1], the system named is A375 cells (a human skin melanoma cell line). Briefly: MTT assay, cytotoxicity on A375 cells. The data set is classed as cell-based. The following applies: for % Cytoxicity: A375 cells; for concentration inducing / required to initiate cell death: A375 tumour cells. Background: Tetrazolium assays rely on reduction of a dye to a coloured formazan, in cell work by metabolically active cells.

Data set [2] has as its system MM6 cells (monocyte leukaemic cell line). The following applies: for % Cytoxicity: MM6 cells; for concentration as low as which high cell death is induced: MM6 tumour cells.
Source text: The MTT assay is a powerful, quantitative and highly reliable colourimetric assay that measures the viability of a cell population. […] The amount of formazan produced is directly proportional to the number of viable cells in the test population. The formazan product formed can be dissolved in dimethyl sulfoxide (DMSO), which enables quantification of the product to be obtained via spectrophotometry. A population containing largely viable cells will produce high levels of the formazan product and will therefore give a deep purple solution upon dissolution with DMSO, while a cell population that has mostly dead cells will produce a colourless solution. The amount of light absorbed (at a wavelength of 575 nm) can be converted to % cytotoxicity by using the following calculation: [control absorption−test absorption]X 100=% cytotoxicity control absorption Experimental Protocol
100 ul of each concentration of each extract/control were added to 3 separate wells in a labeled microtitre plate. In the untreated control wells 100 ul of medium was added—all wells having a total final volume of 200 ul. 3 identical replicates of this were carried out for testing after 24, 48 and 72 hours. All plates were incubated at 37° C. and 5% CO2 until reading.
After the required length of time (i.e. 24, 48 or 72 hours) 20 ul MTT solution (5 mg/ml) was added to each well (excluding wells containing only PBS). Plates were then returned to the incubator (under the same conditions) for a further 4 hours. MTT is photosensitive so all plates were covered in foil to minimise exposure to light. After 4 hours all medium from the wells was pipetted out (care was taken to avoid disturbing the formazan crystals) and 200 ul DMSO was added to each well. Careful mixing with a pipette ensured thorough dissolution. All plates were then read on a spectrophotometer for absorption of light at 575 nm. This was done immediately after addition of DMSO.
The test system of data set [3] is S180 murine sarcoma cells. In words: MTT assay, cytotoxicity on S180 cells. The following applies: S180 and human tumour cells in culture. The procedure:
Two transformed cell lines were chosen for MTT analysis, S180 murine sarcoma cells and HT1080 human fibrosarcoma cells. Cells were seeded in 96-well microliter plates at a density of 2×10^5 cells/ml and incubated at 37° C. and 5% CO2 for 24 hours prior to treatment. 200 ul PBS was added to the wells on the outer edges of the plate to reduce evaporation loss from the wells containing cells.
Serial dilutions were carried out to enable a range of progressively more dilute concentrations of extract to be tested. The same procedure was followed to make solutions of staurosporine and ethanol of the same concentrations. Staurosporine, an agent with well-established cytotoxic properties, was incorporated into the study to provide a benchmark to compare the cytotoxicity of the extracts against.
Careful mixing with a pipette ensured thorough dissolution. […] This was done immediately after addition of DMSO.
The method was also employed to test the impact of identified components of the Haddi extracts. Thus, trans-β-Ocimene and γ-Bisabolene both major components of the Haddi extract were tested using the MTT assay to estimate their impact on tumour cell cytotoxicity and viability, see FIGS. 7 to 10.

Data set [4] deals with mixed cultures containing fibroblast cells and tumour cells. In words: Mixed tissue culture of fibroblast cells and tumour cells. The following applies: 12 hrs. The data set is classed as cell-based. The procedure:
In addition when mixed cultures containing fibroblast cells and tumour cells are treated, the normal fibroblasts appear to survive while the tumour cells go into apoptosis.
The results of such an experiment are shown in FIG. 14, wherein a mixed tissue culture has been treated for 12 hrs with 5 uM Bisabolene. […] In FIG. 15 a mixed tissue culture has been treated for 12 hrs with 100 uM Ocimene.

A further data set deals with mammals. The following applies: cited from earlier work.
The test system of data set [5] is HT1080 human fibrosarcoma cells. In words: Annexin V bioassay of apoptosis in HT1080 cells. The data set is classed as cell-based. Particulars: 5 uM, 12 hours. The source says: The Annexin V bioassay is used to distinguish between cells dying via the apoptotic route and cells dying by necrosis. Knowing how ocimene and bisabolene cause cell death is crucial. […] This is because necrotic cells burst and release their content into the surroundings, thus causing an inflammatory response that is potentially harmful to neighbouring, non-target cells.
The Annexin V bioassay utilises an early change in the plasma membrane of apoptotic cells during which phosphatidylserine (PS), a membrane bound phospholipid, is translocated from the inner surface of the membrane bi-layer to the outer surface—thus bringing the PS into contact with the environment. This change occurs before membrane bleeding and far earlier than DNA fragmentation thus making it an ideal marker for early apoptotic cells. Annexin V is a Ca^2+-dependent phospholipid binding protein with a high affinity for PS. In this study the Annexin V was coupled to a fluorescent marker called FITC, to generate an Annexin V-FITC conjugate. FITC fluoresces with an intense green/yellow colour when viewed via fluorescent microscopy. Thus, early apoptotic cells will bind Annexin V-FITC on their plasma membranes and fluoresce- green/yellow, whereas late apoptotic cells will fluoresce green/yellow in the cytoplasm as well as at the membrane.
To identify necrotic cells another dying agent, propidium iodide (PI) is used. […]

Where two headings read alike, the source gives them in different places.

As to `CC(C)=CCC[C@](C)(O)C1CC=C(C)CC1` (stereo partly drawn) [α-Bisabolol, α-bisabolol], the “% Cytoxicity” value in data set [1] (28 μM, 24 hours) was −2%; in data set [1] (28 μM, 72 hours), 1%; in data set [1] (56 μM, 24 hours) it was −27%; in data set [1] (56 μM, 72 hours), 10%; in data set [1] (112 μM, 24 hours), 10%; in data set [1] (112 μM, 72 hours) it was 26%. For the same molecule, the “% Cytoxicity” value in data set [1] (225 μM, 24 hours) stood at 31%; in data set [1] (225 μM, 72 hours), 41%; in data set [2] (0.13 μM, 24 hours) it was 48%; in data set [2] (0.13 μM, 72 hours) it was 53%; in data set [2] (0.25 μM, 24 hours), 48%; in data set [2] (0.25 μM, 72 hours), 54%. The “% Cytoxicity” value in data set [2] (2.5 μM, 24 hours) amounted to 46%; in data set [2] (2.5 μM, 72 hours), 51%; in data set [2] (10 μM, 24 hours), 33%; in data set [2] (10 μM, 72 hours), 49%. In addition, the “concentration inducing / required to initiate cell death” value in data set [1] was determined as 225 µM. The “concentration as low as which high cell death is induced” value in data set [2] worked out at 0.13 µM.

`C=C/C(C)=C/CC=C(C)C` [trans-β-Ocimene, trans-β-ocimene]: the tumour cell death in data set [3] (concentrations above 200 mM) is reported as around 100%. Also, the “% Cytoxicity” value in data set [1] (46 μM, 24 hours) is reported as 7%; in data set [1] (46 μM, 48 hours) it was −2%; in data set [1] (46 μM, 72 hours) it was −33%; in data set [1] (92 μM, 24 hours) it was −11%; in data set [1] (92 μM, 48 hours) it was −25%; in data set [1] (92 μM, 72 hours), −31%. In addition, the “% Cytoxicity” value is given as 7% in data set [1] (184 μM, 24 hours); 8% in data set [1] (184 μM, 48 hours); −10% in data set [1] (184 μM, 72 hours); 29% in data set [1] (368 μM, 24 hours); 35% in data set [1] (368 μM, 48 hours); 31% in data set [1] (368 μM, 72 hours). In addition, in data set [4] (100 uM), the “survival of fibrocytes versus tumour cells in mixed culture” value was “fibrocytes spread out and survive whilst tumour cells round off to form apoptotic bodies”. The toxicity to mammals result with mammals is “non toxic to mammals”.

Consider `CC(C)=CCC/C(C)=C1/CC=C(C)CC1` [γ-Bisabolene, γ-bisabolene], for which, in data set [3], the “concentration at which potent” value is “around 50 mM”. For the same molecule, the “% Cytoxicity” value in data set [1] (0.13 μM, 24 hours) came out at 15%; in data set [1] (0.13 μM, 48 hours), 5%; in data set [1] (0.13 μM, 72 hours) it was 13%; in data set [1] (0.25 μM, 24 hours), 10%; in data set [1] (0.25 μM, 48 hours) it was 7%; in data set [1] (0.25 μM, 72 hours), 50%. The “% Cytoxicity” value in data set [1] (2.5 μM, 24 hours) turned out to be 15%; in data set [1] (2.5 μM, 48 hours) it was 55%; in data set [1] (2.5 μM, 72 hours) it was 71%; in data set [1] (10 μM, 24 hours), 23%; in data set [1] (10 μM, 48 hours) it was 64%; in data set [1] (10 μM, 72 hours), 77%. For the same molecule, the “% Cytoxicity” value in data set [2] (0.13 μM, 24 hours) is recorded as 3%; in data set [2] (0.13 μM, 48 hours), −37%; in data set [2] (0.13 μM, 72 hours) it was 13%; in data set [2] (0.25 μM, 24 hours), 49%; in data set [2] (0.25 μM, 48 hours) it was 68%; in data set [2] (0.25 μM, 72 hours), 80%. For the same molecule, the “% Cytoxicity” value in data set [2] (2.5 μM, 24 hours) is reported as 51%; in data set [2] (2.5 μM, 48 hours), 70%; in data set [2] (2.5 μM, 72 hours), 78%; in data set [2] (10 μM, 24 hours), 45%; in data set [2] (10 μM, 48 hours), 67%; in data set [2] (10 μM, 72 hours) it was 78%. Also, the “concentration inducing / required to initiate cell death” value in data set [1] was determined as 0.25 µM. In addition, the “induction of apoptotic cell death (Annexin V)” value in data set [5] is listed as “induction of apoptotic cell death”. In data set [4] (5 uM), the “survival of fibrocytes versus tumour cells in mixed culture” value is given as “fibrocytes survive whilst tumour cells round off as apoptotic bodies”. Further, in data set [2], the “concentration as low as which high cell death is induced” value came to 0.25 µM.

Values taken from patent US20070259056A1, “Anti-Tumour Terpene Compounds” (COMPTON DEVELOPMENTS LTD., priority 2003, published 2007).
